Measurements: EP2514430B1, “METHOD AND APPARATUS FOR SIMULTANEOUSLY MANUFACTURING ULTRA PURE BETULIN AND HIGHLY PURE BETULINIC ACID FROM BIRCH BARK” (Korea Institute of Energy Research, priority 2009, dated 2011)
Values after ≈ are worked out from the molar mass of the structure shown. Where two headings read alike, the source gives them in different places.

Legend:
[1] = tested on: human prostatic cancer cells (LNCaP, PC-3, and DU-145) and fibroblast cells; settings: PC-3, DU-145 and fibroblast cells, US 2006/0154903; cited from earlier work
[2] = tested on: herpes simplex viruses; settings: betulin mixed with acyclovir; Gong et al. 2004; cited from earlier work
[3] = Solubility of betulin in single and mixed polar organic solvents; format: physicochemical; settings: organic solvent or mixture
Description: This recrystallization step is an intermediate step for obtaining ultrapure betulin of 99.5% or more and highly-pure betulinic acid of 95% or more. The outer bark and inner bark of a birch tree generally includes betulin, betulinic acid, lupeol (CAS 545-47-1) and polar pigment components. […] When the outer bark of a birch tree is extracted using such a polar organic solvent, a crude extract including 70 ∼ 83% of betulin, 4 ∼ 8% of betulinic acid and residual polar pigment components can be obtained. In this case, in order to use betulin and betulinic acid as intermediate materials for fine chemical products or medical supplies or additives for enhancing antiviral activity, the crude extract is recrystallized.
Preferably, a mixture of organic solvents having a density range of 0.91 g/mL ∼ 1.37 g/mL may be used. […] The crude extract is recrystallized using such a mixture of organic solvents to obtain a high-quality crystallized product (including a secondary crystallized product) including 94 ∼ 96.5% of betulin, 3 ∼ 4% of betulinic acid and residual polar pigment components, and then ultrapure betulin is produced using a 4-bed eluent swing continuous adsorption unit.

For `C=C(C)[C@@H]1CC[C@]2(C(=O)O)CC[C@]3(C)[C@H](CC[C@@H]4[C@@]5(C)CCC(=O)C(C)(C)[C@@H]5CC[C@]43C)[C@@H]12` [butulonic acid], the “inhibiting the growth of human prostatic cancer cells and fibroblast cells” value [1] is listed as “has an effect on inhibiting the growth”.

For `C=C(C)[C@@H]1CC[C@]2(CO)CC[C@]3(C)[C@H](CC[C@@H]4[C@@]5(C)CC[C@H](O)C(C)(C)[C@@H]5CC[C@]43C)[C@@H]12` [betulin], the “antiviral effects to herpes simplex viruses” value [2] is given as “antiviral effects were provided”, the solubility ([3]; chloroform, at 60.5°C, read-out: solubility of betulin in chloroform) is given as no more than 40.7 mg/mL and the solubility ([3]; chloroform:ethanol 18:82 v/v, density = 0.91 g/mL, at 60.5°C, read-out: solubility of betulin in the mixed solvent of chloroform and ethanol) is given as 38.6 mg/mL (≈ 87.2 mM). It also gave a solubility ([3]; chloroform:ethanol 57:43 v/v, density = 1.19 g/mL, at 60.5°C, read-out: solubility of betulin in the mixed solvent of chloroform and ethanol) of 140 mg/mL (≈ 316 mM), a solubility ([3]; chloroform:ethanol 82:18 v/v, density = 1.37 g/mL, at 60.5°C, read-out: solubility of betulin in the mixed solvent of chloroform and ethanol) of 163 mg/mL (≈ 368 mM) and a solubility ([3]; ethanol, at 77.1°C, read-out: solubility of betulin in ethanol) of no more than 23 mg/mL. The solubility ([3]; ethanol, at 78°C, read-out: solubility of betulin in ethanol) was no more than 18.5 mg/mL, the solubility ([3]; ethyl acetate, at 60.5°C, read-out: solubility of betulin in ethyl acetate) was no more than 40.7 mg/mL and the solubility ([3]; ethyl acetate, at 77.1°C, read-out: solubility of betulin in ethyl acetate) was no more than 23 mg/mL. It also gave a solubility ([3]; methanol, at 64.7°C, read-out: solubility of betulin in methanol) of no more than 6.73 mg/mL.
